SMILES strings stand for the structures. Activity calls are given as the source filed them. The calls are words filed in the database; no cut-off is given here.

The target of data set [1] is T1, Cation channel sperm-associated protein 1 (Mus musculus) (UniProt Q91ZR5).
T1 sequence (whole entry): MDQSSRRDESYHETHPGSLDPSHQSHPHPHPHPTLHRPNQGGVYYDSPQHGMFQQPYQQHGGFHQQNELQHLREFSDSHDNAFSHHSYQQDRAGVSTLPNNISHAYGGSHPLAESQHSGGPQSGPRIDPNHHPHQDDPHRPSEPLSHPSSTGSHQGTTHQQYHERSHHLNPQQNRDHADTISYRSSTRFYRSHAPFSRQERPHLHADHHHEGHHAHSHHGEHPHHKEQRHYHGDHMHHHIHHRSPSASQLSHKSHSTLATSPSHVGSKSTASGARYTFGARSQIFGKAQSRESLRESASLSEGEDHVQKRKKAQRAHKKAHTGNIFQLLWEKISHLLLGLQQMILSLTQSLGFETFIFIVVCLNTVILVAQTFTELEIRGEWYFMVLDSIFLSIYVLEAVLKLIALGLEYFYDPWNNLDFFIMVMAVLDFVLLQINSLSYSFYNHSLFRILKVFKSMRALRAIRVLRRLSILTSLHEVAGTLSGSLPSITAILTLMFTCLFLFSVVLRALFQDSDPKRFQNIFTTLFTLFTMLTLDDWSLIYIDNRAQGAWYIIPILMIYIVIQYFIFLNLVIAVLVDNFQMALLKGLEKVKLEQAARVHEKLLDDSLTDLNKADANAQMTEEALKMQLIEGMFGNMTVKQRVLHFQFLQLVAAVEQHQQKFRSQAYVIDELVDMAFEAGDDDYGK
In words: Inhibition of wild type CatSper1 channel in mouse corpus epididymal sperm cells assessed decrease in Ca2+ current by whole cell patch clamp assay.

The target of data set [2] is T2, Cation channel sperm-associated protein 1 (Homo sapiens) (UniProt Q8NEC5).
T2 sequence (whole entry): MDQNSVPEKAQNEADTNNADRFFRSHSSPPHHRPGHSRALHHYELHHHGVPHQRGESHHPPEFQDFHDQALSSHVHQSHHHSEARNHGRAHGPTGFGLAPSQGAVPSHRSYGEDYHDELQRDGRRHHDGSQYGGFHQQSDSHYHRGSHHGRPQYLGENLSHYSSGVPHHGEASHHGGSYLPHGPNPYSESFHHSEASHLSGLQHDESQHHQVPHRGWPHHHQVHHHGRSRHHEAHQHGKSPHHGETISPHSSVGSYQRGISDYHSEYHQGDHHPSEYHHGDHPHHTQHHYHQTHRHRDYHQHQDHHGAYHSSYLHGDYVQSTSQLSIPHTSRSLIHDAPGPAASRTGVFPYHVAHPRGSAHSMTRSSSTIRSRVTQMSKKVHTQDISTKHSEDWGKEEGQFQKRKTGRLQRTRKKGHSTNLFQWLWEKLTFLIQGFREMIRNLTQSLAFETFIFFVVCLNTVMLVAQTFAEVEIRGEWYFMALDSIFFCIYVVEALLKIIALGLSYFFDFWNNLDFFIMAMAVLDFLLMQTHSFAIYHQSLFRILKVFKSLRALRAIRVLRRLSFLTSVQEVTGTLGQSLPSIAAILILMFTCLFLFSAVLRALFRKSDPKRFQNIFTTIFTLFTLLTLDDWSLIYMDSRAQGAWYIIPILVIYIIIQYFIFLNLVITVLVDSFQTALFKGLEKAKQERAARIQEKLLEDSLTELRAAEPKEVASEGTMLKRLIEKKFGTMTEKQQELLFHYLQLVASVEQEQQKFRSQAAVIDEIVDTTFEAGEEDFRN
In words: Inhibition of CatSper1 channel in human sperm assessed as decrease in sperm hyperactivity after 5 mins by computer-assisted sperm analysis.

In data set [3] the target is T1, Cation channel sperm-associated protein 1 (Mus musculus). As to the kind of experiment: Inhibition of CatSper1 channel […] in 129/SvJ x C57BL/6J mouse cauda epididymal sperm assessed as reduction in sperm hyperactivity after 5 mins by single sperm motility assay.
In data set [4] the test system is Mus musculus. In words: In vivo inhibition of fertility in C57BL/6 male mouse administered in diet after 7 to 9 days. Format: functional, organism-based.
The test system of data set [5] is Mus musculus. As to the kind of experiment: In vivo inhibition of fertility in C57BL/6 female mouse administered in diet treated for 5 weeks followed by breeding of female mouse with nontreated age-matched male mouse for 4 days. The class given is functional, organism-based.
Data set [6] is described as follows: Toxicity in C57BL/6 male mouse assessed as effect on reproductive hormone levels administered in diet measured after prolonged compound treatment. The following applies: in vivo, po.
Data set [7] is described as follows: Toxicity in C57BL/6 female mouse assessed as effect on reproductive hormone levels administered in diet measured after prolonged compound treatment. To be noted: in vivo, po.
A short description of data set [8]: Toxicity in C57BL/6 male mouse assessed as effect on serum biochemistry administered in diet measured after prolonged compound treatment. The following applies: in vivo, po.
The nature of data set [9]: Toxicity in C57BL/6 female mouse assessed as effect on serum biochemistry administered in diet measured after prolonged compound treatment. To be noted: in vivo, po.
A short description of data set [10]: Toxicity in C57BL/6 male mouse assessed as effect on animal behavior administered in diet measured after prolonged compound treatment. The following applies: in vivo, po.
Data set [11] in a line: Toxicity in C57BL/6 female mouse assessed as effect on animal behavior administered in diet measured after prolonged compound treatment. To be noted: in vivo, po.
Data set [12] deals with Mus musculus. In words: Reversible inhibition of fertility in C57BL/6 female mouse administered in diet for 2 months. Format: functional. To be noted: TDE = time-dependent effect.
For data set [13], the system named is Mus musculus. In words: Reversible inhibition of fertility in C57BL/6 male mouse administered in diet for 2 months. Format: functional. To be noted: TDE = time-dependent effect.
Data set [14] concerns the target T2, Cation channel sperm-associated protein 1 (Homo sapiens). As to the kind of experiment: Inhibition of CatSper1 channel in human sperm assessed as sperm hyperactivity at 1 uM after 5 mins by computer-assisted sperm analysis (reference value: 10.5%). Details: scale not given: the % may be the effect or the level left.
Data set [15] has the same target. In words: Inhibition of CatSper1 channel in human sperm assessed as sperm hyperactivity at 50 uM after 5 mins by computer-assisted sperm analysis (reference value: 10.5%). Details: scale not given: the % may be the effect or the level left.
The target is the same in data set [16]. As to the kind of experiment: Inhibition of CatSper1 channel in human sperm assessed as sperm motility at 1 uM after 5 mins by computer-assisted sperm analysis (reference value: 68%). Details: scale not given: the % may be the effect or the level left.
Data set [17] has the same target. As to the kind of experiment: Inhibition of CatSper1 channel in human sperm assessed as sperm motility at 50 uM after 5 mins by computer-assisted sperm analysis (reference value: 68%). Details: scale not given: the % may be the effect or the level left.
The target of data set [18] is T1, Cation channel sperm-associated protein 1 (Mus musculus). In words: Inhibition of CatSper1 currents in mouse spermatozoa isolated from corpus epididymis at 20 uM by whole cell patch clamp assay.

As to `Cc1conc1C(=O)c1no[n+]([O-])c1C(=O)c1nocc1C`, the inhibition entry (in data set [1]; in data set [2]; with Mus musculus [5]) was “Active” in each case. For the same compound, the inhibition entry in data set [3] is “Dose-dependent effect”; with Mus musculus [4], “Dose-dependent effect”; with Mus musculus [12], “Tde”; with Mus musculus [13], “Tde”. In addition, the Activity result in data set [6], in data set [7], in data set [8], in data set [9], in data set [10] and in data set [11] was “Non-Toxic” throughout.
`O=C(c1ccc(Cl)c(Cl)c1)c1no[n+]([O-])c1C(=O)c1ccc(Cl)c(Cl)c1`: the inhibition result (in data set [1]; in data set [2]; in the data set with Mus musculus [5]) was “Active” each time. In addition, the inhibition result was “Dose-dependent effect” in data set [3], “Dose-dependent effect” with Mus musculus [4], “Tde” in the data set on Mus musculus [12] and “Tde” in the data set on Mus musculus [13]. Moreover, the Activity result in [6], in [7], in data set [8], in [9], in [10] and in data set [11] was “Non-Toxic” each time.
Consider `CC(C)(C)C(=O)c1no[n+]([O-])c1C(=O)C(C)(C)C`, for which the inhibition entry (in [1]; in data set [2]; in the data set with Mus musculus [5]) was “Active” in each case. Moreover, the inhibition result was “Dose-dependent effect” in data set [3], “Dose-dependent effect” in the data set on Mus musculus [4], “Tde” in the data set with Mus musculus [12] and “Tde” with Mus musculus [13]. The Activity result in [6], in data set [7], in data set [8], in data set [9], in [10] and in data set [11] was “Non-Toxic” throughout.
Take `O=C(c1ccccc1)c1no[n+]([O-])c1C(=O)c1ccccc1`: the inhibition entry (in data set [1]; in the data set with Mus musculus [5]) was “Active” each time. Further, the inhibition entry was “Dose-dependent effect” in data set [3], “Dose-dependent effect” with Mus musculus [4], “Tde” in the data set with Mus musculus [12] and “Tde” with Mus musculus [13]. Further, the Activity result in data set [6], in [7], in data set [8], in data set [9], in [10] and in [11] was “Non-Toxic” in each case.
As for `O=C(c1cccs1)c1no[n+]([O-])c1C(=O)c1cccs1`, the inhibition result (in [1]; in the data set with Mus musculus [5]; in [18]) was “Active” in each case. The Activity in [14] was 6.2%; in [15] it was 1.6%; in [16], 59%; in data set [17] it was 70%; in data set [6] it was “Non-Toxic”; in [7], “Non-Toxic”. Moreover, the Activity entry in data set [8], in [9], in [10] and in [11] was “Non-Toxic” throughout. Also, the inhibition result in data set [3] is “Dose-dependent effect”; with Mus musculus [4], “Dose-dependent effect”; in the data set on Mus musculus [12], “Tde”; in the data set with Mus musculus [13], “Tde”.

The values above are taken from ChEMBL document CHEMBL3880419, “Modulators of sperm hypermobility and uses thereof” (2013).
